Measurements as given in patent US20250296940A1, “ANNULATED 2-AMINO-3-CYANO THIOPHENES AND DERIVATIVES FOR THE TREATMENT OF CANCER” (Boehringer Ingelheim Int'l GmbH Corp., priority 2021, published 2025).

Target: T1, protein-protein interaction between SOS1 and KRAS G12C (Homo sapiens, UniProt P01116, C118S/C51S/C80L/G12C)
T1 construct: His6 (N); SOS1: in-house or Viva Biotech Ltd; host or cells: E. coli (KRAS)
Experiment: KRAS::SOS1 AlphaScreen Binding Assay
Conditions: Table 19, intermediates C-3/C-4; 7.5 nM KRAS G12C, 10 μM GDP, 5 nM GST-SOS1; read-out: IC50 G12C::SOS 1
Excerpt: This assay can be used to examine the potency with which compounds according to the invention binding to KRAS G12C inhibit the protein-protein interaction between SOS1 and KRAS G12C. […] Low IC50 values in this assay setting are indicative of strong inhibition of protein-protein interaction between SOS1 and KRAS:
• GST-tagged SOS1 (564_1049_GST_TEV_ECO) produced in-house • GST-TEV-SOS1 (564-1049) is purchased from Viva Biotech Ltd. • The expression construct of KRAS G12C (amino acids 1-169 of reference sequence P01116-2 (uniprot), with additional mutations: C51S, C80L, and C118S) containing a C-terminal avi-tag was obtained by gene synthesis (GeneArt, Thermo Fisher) in donor vector (pDONR-221) and transferred by recombinant cloning into pDEST17 vector bearing an N-terminal His6-tag. The protein was expressed in E. coli and the purified protein was biotinylated with the E. coli biotin ligase (BirA) before usage. • GDP (Sigma Cat No G7127) • AlphaLISA Glutathione Acceptor Beads (PerkinElmer, Cat No AL109) • AlphaScreen Streptavidin Donor Beads (PerkinElmer Cat No 6760002) • Assay plates: Proxiplate-384 PLUS, white (PerkinElmer, Cat No 6008289)
7.5 nM (final assay concentration) KRAS G12C, 10 μM (final assay concentration) GDP and 5 nM (final assay concentration) GST-SOS1 are mixed in assay buffer prior to use and kept at room temperature.
AlphaLISA Glutathione Acceptor Beads and AlphaScreen Streptavidin Donor Beads are mixed in assay buffer at a concentration of 10 μg/mL (final assay concentration) each prior to use and kept at room temperature.
Compounds are diluted to a final start concentration of 100 μM and are tested in duplicate. Assay-ready plates (ARPs) are generated using an Access Labcyte Workstation with a Labcyte Echo 550 or 555 acoustic dispenser. For compound a start concentration of 100 μM, 150 nL of compound solution is transferred per well in 11 concentrations in duplicate with serial 1:5 dilutions.
The assay is run using a fully automated robotic system in a darkened room below 100 Lux. 10 μL of KRAS::SOS1 GDP mix is added into columns 1-24 to the 150 nL of compound solution (final dilution in the assay 1:100, final DMSO concentration 1%).
After 30 minutes incubation time 5 μL of bead mix is added into columns 1-23. Plates are kept at room temperature in a darkened incubator. After further 60 minutes incubation, the signal is measured using a PerkinElmer Envision HTS Multilabel Reader using the AlphaScreen specifications from PerkinElmer. Each plate contains the following controls: • diluted DMSO+KRAS::SOS1 GDP mix+bead mix • diluted DMSO+KRAS::SOS1 GDP mix
IC50 values are calculated and analyzed using a 4 parametric logistic model.
Tables of example compounds disclosed herein contain IC50 values determined using the above assay.

T1 sequence (P01116 1-169 isoform P01116-2 G12C/C51S/C80L/C118S): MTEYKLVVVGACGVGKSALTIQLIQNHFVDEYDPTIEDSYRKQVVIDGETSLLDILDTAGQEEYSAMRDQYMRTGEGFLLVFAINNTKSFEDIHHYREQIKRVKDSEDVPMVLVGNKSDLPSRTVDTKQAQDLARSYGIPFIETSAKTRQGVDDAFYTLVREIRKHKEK

SMILES | IC50 [nM]
C[C@H](Oc1cc(N2CCNC3(CC3)C2)nc(-c2noc3c2CCC[C@@]32CCCc3sc(N)c(C#N)c32)n1)[C@@H]1CCCN1C [C-4b] | 1.9
C[C@H](Oc1cc(N2C[C@H](C)N[C@@H](C)C2)nc(-c2noc3c2CCC[C@@]32CCCc3sc(N)c(C#N)c32)n1)[C@@H]1CCCN1C [C-4a] | 2.4
CNC1CCN(c2cc(O[C@@H](C)[C@@H]3CCCN3C)nc(-c3noc4c3CCC[C@@]43CCCc4sc(N)c(C#N)c43)n2)CC1 [C-4e] | 9
C[C@H](Oc1cc(N2C[C@H](C)N[C@@H](C)C2)nc(-c2onc3c2CCC[C@@]32CCCc3sc(N)c(C#N)c32)n1)[C@@H]1CCCN1C [C-3a] | 4.6
C[C@H](Oc1nc(-c2noc3c2CCC[C@@]32CCCc3sc(N)c(C#N)c32)cc(N2C[C@H](C)N[C@@H](C)C2)n1)[C@@H]1CCCN1C [C-4c] | 37

More lines, in order of falling IC50, values ahead:

IC50 [nM] | SMILES
45 | C[C@H](Oc1nc(-c2onc3c2CCC[C@@]32CCCc3sc(N)c(C#N)c32)cc(N2CCNC3(CC3)C2)n1)[C@@H]1CCCN1C [C-3e]
4.1 | C[C@H](Oc1cc(N2C[C@H](C)NC3(CC3)C2)nc(-c2onc3c2CCC[C@@]32CCCc3sc(N)c(C#N)c32)n1)[C@@H]1CCCN1C [C-3d]
3.2 | C[C@H](Oc1cc(N2CCNCC2)nc(-c2noc3c2CCC[C@@]32CCCc3sc(N)c(C#N)c32)n1)[C@@H]1CCCN1C [C-4d]
2.5 | C[C@H](Oc1cc(N2CCNC3(CC3)C2)nc(-c2onc3c2CCC[C@@]32CCCc3sc(N)c(C#N)c32)n1)[C@@H]1CCCN1C [C-3b]
